# Laboratory results from US20040002510A1, “Crystalline micronisate, process for the manufacture thereof and use thereof for the preparation of a medicament” (Boehringer Ingelheim Pharma GmbH & Co. KG, priority 2002, published 2004).
# Assays:
# [1] = Determining the heat of solution (enthalpy of solution) by solution calorimeter; assay type: physicochemical; details: chemically pure water, 25° C., mass corrected by water content
# Experimental: D.4) Determining the Heat of Solution (Enthalpy of Solution) Ec:
# The solution enthalpy is determined using a solution calorimeter 2225 Precision Solution Calorimeter made by Messrs. Thermometric. The heat of solution is calculated by means of the change in temperature occurring (as a result of the dissolving process) and the system-related change in temperature calculated from the base line. Before and after the ampoule is broken, electrical calibration is carried out with an integrated heating resistor of a precisely known power. A known heat output is delivered to the system over a set period and the jump in temperature is determined.
# The electrical calibration takes place during the measurement, once before and once after the breakage of the ampoule. The calibration after the breakage of the ampoule is used for the evaluation.
# As the mass of the tiotropium bromide micronisate weighed out has to be corrected by the water content of the material, the unsealed ampoules together with about 1 g of the test substance are left to stand open for at least 4 hours. After this equilibration time the ampoules are sealed with the silicon stoppers and the water content of the bulk sample is determined by Karl-Fischer titration. […]
# The corrected mass mc determined by this calculation is used as the input value (=weight) to calculate the solution enthalpy measured.
# [2] = Determining particle size by laser diffraction (Fraunhofer diffraction); assay type: physicochemical; details: air dispersal
# Text: The micronisate of tiotropium bromide obtainable by the above method has a characteristic particle size X50 of between 1.0 μm and 3.5 μm, preferably between 1.1 μm and 3.3 μm, most preferably between 1.2 μm and 3.0 μm and Q(5.8) of more than 60%, preferably more than 70%, most preferably more than 80%. The characteristic value X50 denotes the median value of the particle size below which 50% of the particles fall, with regard to the distribution by volume of the individual particles. The characteristic value Q(5.8) corresponds to the quantity of particles below 5.8 μm , based on the volume distribution of the particles. The particle sizes were determined within the scope of the present invention by laser diffraction (Fraunhofer diffraction). More detailed information on this subject can be found in the experimental descriptions of the invention.
# D.2) Determining Particle Size by Laser Diffraction (Fraunhofer Diffraction)
# To determine the particle size the powder is fed into a laser diffraction spectrometer by means of a dispersing unit.
smiles,measurement,setting,value
"C[N+]1(C)C2C[C@H](OC(=O)C(O)(c3cccs3)c3cccs3)C[C@H]1[C@H]1OC21 (stereo partly drawn) [tiotropium bromide micronisate, (1α,2β,4β,5α,7β)-7-[(hydroxydi-2-thienylacetyl)oxy]-9,9-dimethyl-3-oxa-9-azoniatricyclo[3.3.1.0^2,4]nonane-bromide]",specific enthalpy of solution (heat of solution),[1],more than 65 Ws/g
same,"Q(5.8) (quantity of particles below 5.8 μm, based on the volume distribution)",[2],more than 60%
